# Experimental data reported in US20120165325A1, “Stable forms of N-(2,6-Dimethyl-4-morpholin-4-yl-phenyl)-3,3-dimethyl-butyramide” (H. Lundbeck A/S, priority 2009, published 2012).
# Assays:
# Male Wistar rats [1] = assay: Amphetamine challenge: antagonism of d-amphetamine induced hyperactivity; format: in vivo; settings: rat; s.c. 30 min before d-amphetamine sulphate 0.5 mg/kg; motility over 2 hours; std. dev. in brackets
# Method: Subjects. Male Wistar rats (Taconic, Denmark) weighing 170-240 g are used. The animals were housed under a 12-hr light/dark cycle under controlled conditions for regular in-door temperature (21±2° C.) and humidity (55±5%) with food and tap water available ad libitum. Eight rats were used at each dose level and in the parallel control group receiving the vehicle to the test compound plus d-amphetamine and the group receiving vehicle injections only.
# Experimental procedure. The experiment was made in normal light conditions in an undisturbed room. The test substance was injected 30 min before s.c. before the injection of d-amphetamine sulphate (0.5 mg/kg). Immediately after injection of d-amphetamine, the rats were placed individually in the test cages that were placed in a U-frame, equipped with 4 infrared light sources and photocells. The light beams crossed the cage 4 cm above the cage floor. Recording of a motility count required interruption of adjacent light beams, thus avoiding counts induced by stationary movements of the rat. Motility (counts) was recorded for a period of 2 hours. The mean motility induced by vehicle (saline) treatment in the absence of d-amphetamine was used as baseline. The 100 percent effect of d-amphetamine was accordingly calculated to be total motility counts minus baseline. The response in groups receiving test compound was thus determined by the total motility counts minus baseline, expressed in percent of the similar result recorded in the parallel amphetamine control group. The percent responses were converted to percent inhibition from which ED50 values were calculated by means of log-probit analyses. In a parallel set of data, the potential sedative properties (motility inhibition) of the test compounds were evaluated using essentially the same procedure with the exception of not administering d-amphetamine-sulphate at the initiation of locomotor assessment.
# Male NMRI mice [2] = assay: Amphetamine sensitisation: inhibition of the sensitised behavioural response to amphetamine; format: in vivo, mouse; settings: amphetamine-pretreated mice, s.c. 30 min before D-amphetamine challenge 1.25 mg/kg s.c., 30 min test, S.D. in brackets
# Method: Subjects. […] The animals were housed 6 mice pr cage in a 12-hr light/dark cycle under controlled conditions for regular in-door temperature (21±2° C.) and humidity (55±5%) with food and tap water available ad libitum.
# Experimental procedure. […] 5×8 infrared light sources and photocells interspaced by 4 cm monitor the locomotor activity.
# Administration of compounds.
# Data analyses. […] A therapeutic index value can subsequently be calculated by dividing the first ED50 by the second.
# Male NMRI mice [3] = assay: Forced swim test; format: in vivo, mouse; settings: 30 min before test, last 3 min of 6 min swim, vehicle = 100
# Method: Subjects. Male NMRI mice (Charles River) weighing 23-25 g were used. The mice were kept 8 mice pr cage in a 12-hr light/dark cycle under controlled conditions for regular in-door temperature (21±2° C.) and humidity (55±5%) with food and tap water available ad libitum. 8 mice were used pr experimental group.
# Experimental procedure. The mice were placed in 2000 ml beaker containing 1200 ml of tempered water (25° C.) and left to swim for 6 min. The performance of the mice was video recorded, digitalized and analysed by means of a digital analysis system (Bioobserve). The time spent immobile for the last 3 min. of the test session was quantified for each mouse.
# Treatment. 30 min. before the test, mice were treated s.c. with N-(2,6-dimethyl-4-morpholin-4-yl-phenyl)-3,3-dimethyl-butyramide or vehicle (10-%-2-OH-propyl-cyclodextrin, 10 ml/kg). In addition as positive control, imipramine-HCl (40 mg/kg) and a saline control (10 ml/kg) was included.
# Analyses. The time spent immobile was statistically compared across the experimental groups against the relevant control group by means of one-way analysis of variance. A post-hoc test (Student-Newman-Keuls) was employed when appropriate. P-levels <0.05 were considered significant.
# [4] = Intrinsic dissolution rate (37C); format: physicochemical
# [5] = Solid form stability at 60° C. and 95% relative humidity; format: physicochemical; settings: relative humidity of 95%
# Male NMRI mice [6] = assay: Inhibition of baseline motility in vehicle-pretreated, vehicle-challenged mice; format: in vivo, mouse; settings: 30 min test
# Method: Subjects. Male NMRI mice (Charles River) weighing approx. 35 g were used. The animals were housed 6 mice pr cage in a 12-hr light/dark cycle under controlled conditions for regular in-door temperature (21±2° C.) and humidity (55±5%) with food and tap water available ad libitum. 12 mice were used pr experimental group.
# Experimental procedure. All mice were pre-treated once daily for five days with either d-amphetamine sulphate (2.5 mg/kg s.c.) or saline (10 ml/kg). For the 17 days between the last day of pre-treatment and the test day, the animals were kept in their home cage receiving the standard care as described above. […] The recording of a motility counted requires interruption of adjacent light beams, thereby avoiding counts induced by stationary movements of the mice. […]
# Data analyses. […] That is, the response in amphetamine-sensitized groups receiving test compound was thus determined as the sensitised response minus the baseline motility, expressed in percent of the similar result recorded in the sensitized amphetamine response group. […] Similarly, an ED50 for inhibiting baseline motility was calculated by expressed the motility response in vehicle-pretreated, vehicle-challenged, drug-treated animals relative to the baseline motility response. A therapeutic index value can subsequently be calculated by dividing the first ED50 by the second.
# Male Wistar rats [7] = assay: Motility inhibition (potential sedative properties, without d-amphetamine); format: in vivo; settings: rat, std. dev. in brackets
# Source text: Subjects. Male Wistar rats (Taconic, Denmark) weighing 170-240 g are used.
# Experimental procedure. […] Recording of a motility count required interruption of adjacent light beams, thus avoiding counts induced by stationary movements of the rat.
compound,measurement,setting,value
"Cc1cc2c(s1)Nc1ccccc1N=C2N1CCN(C)CC1 [Olanzapine, reference compound]",ED50,Male Wistar rats [1],0.21 mg/kg
same,ED50,Male NMRI mice [2]; Mus musculus,0.11 mg/kg
same,Immobility in % (±S.D.),Male NMRI mice [3]; dose 0.31 mg/kg,96%
same,Immobility in % (±S.D.),Male NMRI mice [3]; dose 1.3 mg/kg,95%
"Cc1cc(N2CCOCC2)cc(C)c1NC(=O)CC(C)(C)C [α form, N-(2,6-Dimethyl-4-morpholin-4-yl-phenyl)-3,3-dimethyl-butyramide, α form]",Intrinsic dissolution rate (37C),[4]; listed as α,0.021 mg//cm^2/min
same,Stability: solid form stable for,[5]; listed as α,Solid form stable for >90 days at 60 °C
"Cc1cc(N2CCOCC2)cc(C)c1NC(=O)CC(C)(C)C [β form, N-(2,6-Dimethyl-4-morpholin-4-yl-phenyl)-3,3-dimethyl-butyramide, β form]",Intrinsic dissolution rate (37C),[4]; listed as β,0.026 mg//cm^2/min
same,Stability: solid form stable for,[5]; listed as β,Solid form stable for >90 days at 60 °C
"Cc1cc(N2CCOCC2)cc(C)c1NC(=O)CC(C)(C)C [γ form, N-[2,6-Dimethyl-4-morpholin-4-yl-phenyl]-3,3-dimethyl-butyramide, γ form]",Intrinsic dissolution rate (37C),[4]; listed as γ,0.036 mg//cm^2/min
same,Stability: solid form stable for,[5]; listed as γ,Solid form stable for >14 days at 60 °C
Lithium-chloride,Amphetamine antagonism ED50 ± std. dev.,Male Wistar rats [1],12 (1.7) mg/kg
same,Inhibition of amphetamine sensitised response. ED50 (±S.D.),Male NMRI mice [2],34 (7.2) mg/kg
same,Inhibition of baseline motility. ED50 (±S.D.),Male NMRI mice [6],>>40 mg/kg
same,Motility inhibition ED50 ± std. dev.,Male Wistar rats [7],>40 mg/kg
